Experiments:
[1] = biological target: T1, ALDH1A2 (Homo sapiens, UniProt O94788); assay: Cell-based enzyme assay, retinoic acid production in ALDH1A2/H1299 cells; conditions: cell-based
T1 sequence (O94788 1-518): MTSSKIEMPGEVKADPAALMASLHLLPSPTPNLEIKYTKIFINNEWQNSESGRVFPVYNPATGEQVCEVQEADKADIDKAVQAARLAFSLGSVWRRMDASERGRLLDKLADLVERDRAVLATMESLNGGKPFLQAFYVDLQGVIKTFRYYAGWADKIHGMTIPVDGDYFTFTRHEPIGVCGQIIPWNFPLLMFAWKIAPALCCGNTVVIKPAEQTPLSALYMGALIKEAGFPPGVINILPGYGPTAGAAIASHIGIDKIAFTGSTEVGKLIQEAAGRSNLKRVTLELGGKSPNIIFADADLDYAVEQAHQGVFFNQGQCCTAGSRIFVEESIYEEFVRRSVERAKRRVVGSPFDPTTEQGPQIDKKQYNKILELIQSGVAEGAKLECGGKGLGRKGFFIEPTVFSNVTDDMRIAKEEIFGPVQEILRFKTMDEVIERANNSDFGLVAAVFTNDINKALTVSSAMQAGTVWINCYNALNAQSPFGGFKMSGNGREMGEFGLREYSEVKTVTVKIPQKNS
Description: (§1) ALDH1A1 cDNA clone was purchased transfection-ready, and ALDH1A2 full-length cDNA was subcloned into pcDNA3, a mammalian expression vector. ALDH1A1 and ALDH1A2 were transfected into H1299 cells (CRL5803, ATCC) using Lipofectamine 3000 (Invitrogen) following the manufacturer's instructions. Stably transfected cells were selected with G418 (1.2 mg/ml) and referred to as ALDH1A1/H1299 and ALDH1A2/H1299. For the cell-based enzyme assays,
(§2) H1299 cells were routinely grown in RPMI-1640 (ATCC) supplemented with 10% fetal bovine serum (Atlanta Biologicals) in a 37 C, 5% CO2, moisture-saturated atmosphere. H1299, ALDH1A1/H1299 and ALDH1A2/H1299 cells were seeded into 12-well plates (1×10^5 cells/well) and grown for 2 days to confluence. Confluent cells were treated for 20 hours in the above media excluding serum with 2 μM all-trans-retinal, and varying concentrations of inhibitors. Serum-free media was used for the treatment period to avoid retinoic acid in serum. Retinoic acid concentrations were determined from cells and media, and specificity of inhibitors was determined by comparing retinoic acid levels in the presence and absence of the inhibitors in ALDH1A1- vs. ALDH1A2-expressing cells.

[2] = biological target: T2, ALDH1A1 (Homo sapiens, UniProt P00352); assay: Cell-based enzyme assay, retinoic acid production in ALDH1A1/H1299 cells; conditions: cell-based
T2 sequence (P00352 1-501): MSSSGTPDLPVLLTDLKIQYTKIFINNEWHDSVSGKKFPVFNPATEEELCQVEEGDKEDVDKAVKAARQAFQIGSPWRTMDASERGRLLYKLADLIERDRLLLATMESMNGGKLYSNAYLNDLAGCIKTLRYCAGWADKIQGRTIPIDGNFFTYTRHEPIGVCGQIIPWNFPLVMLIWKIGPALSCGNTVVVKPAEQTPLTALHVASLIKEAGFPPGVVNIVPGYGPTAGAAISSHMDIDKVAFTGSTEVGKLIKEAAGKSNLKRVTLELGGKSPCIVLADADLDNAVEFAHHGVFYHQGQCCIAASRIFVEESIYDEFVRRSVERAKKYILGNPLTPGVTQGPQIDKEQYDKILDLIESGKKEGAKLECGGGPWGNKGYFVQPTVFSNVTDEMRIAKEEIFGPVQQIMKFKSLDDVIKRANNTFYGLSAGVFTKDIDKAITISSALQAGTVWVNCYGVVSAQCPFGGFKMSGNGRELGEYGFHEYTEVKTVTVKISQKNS
Description: as §1, §2

[3] = biological target: T3, ALDH2 (Homo sapiens, UniProt P05091); assay: Purified ALDH2 assay with propanal, NADH fluorescence; format: biochemical; conditions: purified enzyme
T3 construct: histidine-tag (N); made in house; host or cells: bacterial expression (pETite vector, IPTG induction)
T3 sequence (P05091 18-517): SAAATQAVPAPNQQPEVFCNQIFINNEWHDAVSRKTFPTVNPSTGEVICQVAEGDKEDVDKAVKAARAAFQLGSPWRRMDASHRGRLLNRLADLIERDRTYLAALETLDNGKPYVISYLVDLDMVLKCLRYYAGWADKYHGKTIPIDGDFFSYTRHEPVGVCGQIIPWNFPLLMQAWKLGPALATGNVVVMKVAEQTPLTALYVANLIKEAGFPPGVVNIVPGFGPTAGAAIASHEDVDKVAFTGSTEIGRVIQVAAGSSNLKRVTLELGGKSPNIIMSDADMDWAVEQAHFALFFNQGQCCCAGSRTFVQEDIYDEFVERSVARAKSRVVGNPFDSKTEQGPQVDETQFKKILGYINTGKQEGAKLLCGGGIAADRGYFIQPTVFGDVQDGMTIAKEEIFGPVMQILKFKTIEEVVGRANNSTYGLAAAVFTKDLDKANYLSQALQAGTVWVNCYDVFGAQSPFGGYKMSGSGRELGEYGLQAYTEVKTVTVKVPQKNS
Description: ALDHs were cloned into bacterial expression vector for in vitro enzyme assays and into mammalian expression vectors for cell-based enzyme assays. Human ALDH1A1 cDNA and human ALDH2 cDNA were purchased from OriGene (SC321535) and Open Biosystems (MHS4771-99611182), respectively. and human ALDH1A2 cDNA was cloned from human testis RNA using RT-PCR (Population Division of the Department of Economic and Social Affairs of the United Nations Secretariat. World Population prospects: the 2008 revision. Available at http://www.un.org/esa/population/ (Retrieved Sep. 30, 2011)). For bacterial expression, an open reading frame of ALDH1A1 and ALDH2 were subcloned into the pETite vector (Lucigen) with a 5′ histidine-tag and that of ALDH1A2 into a pET28 vector (Novagen) with a 3′ histidine-tag. Correct frame and sequences were verified through DNA sequencing (UW DNA sequencing facility). ALDHs were induced with 1 mM IPTG and purified using His.Bind resin (Novagen, San Diego, Calif.) and stored in a buffer containing 20 mM Hepes (pH 8), 150 mM KCl and 1 mM EDTA as previously described (Fierce, Y., de Morais Vieira, M., Piantedosi, R., Wyss, A., Blaner, W. S., and Paik, J. (2008) In vitro and in vivo characterization of retinoid synthesis from beta-carotene. Archives of biochemistry and biophysics 472, 126-138). […]
For this, 2 μg purified ALDH2, 20 μM propanal and varying concentrations of inhibitors were incubated at room temperature. Enzyme activity was determined by measuring fluorescence of NADH (Ex, 350 nm/Em, 460 nm) using a Victor3 plate reader (PerkinElmer), and initial velocity was calculated from two consecutive readings over 1 minute.

[4] = biological target: T1, ALDH1A2; assay: Inhibitor screening using purified enzymes: ALDH1A2 activity, retinoic acid production by HPLC (5 uM initial screen, then IC50); format: biochemical; set-up: histidine-tag (C); made in house; host or cells: bacterial expression (pET28 vector, IPTG induction); conditions: purified enzyme
Description: ALDHs were cloned into bacterial expression vector for in vitro enzyme assays and into mammalian expression vectors for cell-based enzyme assays. Human ALDH1A1 cDNA and human ALDH2 cDNA were purchased from OriGene (SC321535) and Open Biosystems (MHS4771-99611182), respectively. and human ALDH1A2 cDNA was cloned from human testis RNA using RT-PCR (Population Division of the Department of Economic and Social Affairs of the United Nations Secretariat. World Population prospects: the 2008 revision. Available at http://www.un.org/esa/population/ (Retrieved Sep. 30, 2011)). For bacterial expression, an open reading frame of ALDH1A1 and ALDH2 were subcloned into the pETite vector (Lucigen) with a 5′ histidine-tag and that of ALDH1A2 into a pET28 vector (Novagen) with a 3′ histidine-tag. Correct frame and sequences were verified through DNA sequencing (UW DNA sequencing facility). ALDHs were induced with 1 mM IPTG and purified using His.Bind resin (Novagen, San Diego, Calif.) and stored in a buffer containing 20 mM Hepes (pH 8), 150 mM KCl and 1 mM EDTA as previously described (Fierce, Y., de Morais Vieira, M., Piantedosi, R., Wyss, A., Blaner, W. S., and Paik, J. (2008) In vitro and in vivo characterization of retinoid synthesis from beta-carotene. Archives of biochemistry and biophysics 472, 126-138).
ALDH1A1 and ALDH1A2 activity was determined as previously reported (Beedle M T, Stevison F, Zhong G, Topping T, Hogarth C, Isoherranen N, Griswold M D. Sources of All-Trans Retinal Oxidation Independent of the Aldehyde Dehydrogenase 1A Isozymes Exist in the Postnatal Testis. Biol Reprod. 2018 Sep. 21. doi: 10.1093/biolre/ioy200). Briefly, purified enzymes were incubated in a buffer containing 10 mM HEPES buffer (pH 8.0), 150 mM potassium chloride and 2 mM EDTA with 2 mM NAD. Retinoic acid production was determined using HPLC as previously reported (Amory J K, Muller C H, Shimshoni A J, Isoherranen N, Paik J, Moreb J S, Amory D W, Evanoff R, Goldstein A S, Griswold M D. Suppression of spermatogenesis by bisdichloroacetyldiamines is mediated by inhibition of testicular retinoic acid biosynthesis. Journal of Andrology 2011; 32(1):111-119). Inhibitors were diluted in DMSO and added to the reactions. […] For initial screening of inhibitors for ALDH1A2, 1 μg ALDH1A2, 5 μM all-trans-retinal and 5 μM inhibitors were incubated for 15 min at 37° C. […] For this purpose, 0.5 μg ALDH1A2 and […] were incubated for 5 minutes at 37° C. with varying concentrations of inhibitors. To determine specificity toward ALDH1A2, the IC50 for […]

With “1-(4-Hydroxymethylphenyl)-3-[4-(methylsulfonyl)phenyl]-N-(3-fluorophenyl)-1H-pyrazole-4-carboxamide [Compound 282]” the EC50 [1] was 0.24 µM and the EC50 [2] was > 20 µM.
“2-(Acetyloxy)phenyl 1-(4-fluorophenyl)-3-[4-(methylsulfonyl)phenyl]-1H-pyrazole-4-carboxylate [Compound 293]” was tested, and the EC50 [1] was 0.07 µM and the EC50 [2] was > 20 µM.
Work on `CC(=O)Oc1ccc(-c2nn(-c3ccccc3)cc2C=O)cc1` [Cmpd 35] yielded an EC50 [1] of 0.952 µM and an EC50 [2] of 3.38 µM.
`CS(=O)(=O)c1ccc(-c2nn(-c3cccc(Cl)c3)cc2C(=O)Nc2ccccc2O)cc1` [Compound 240, N-(2-Hydroxyphenyl)-3-[4-(methylsulfonyl)phenyl]-1-(3-chlorophenyl)-1H-pyrazole-4-carboxamide] was tested, and the IC50 [3] was 14.2 µM, the EC50 [1] was < 0.5 µM and the IC50 [4] was 0.036 µM.
For `CS(=O)(=O)c1ccc(-c2nn(-c3ccc(F)cc3)cc2C(=O)Nc2ccccc2O)cc1` [Compound 242, N-(2-Hydroxyphenyl)-3-[4-(methylsulfonyl)phenyl]-1-(4-fluorophenyl)-1H-pyrazole-4-carboxamide], the IC50 [3] was 6.32 µM, the EC50 [1] was < 0.5 µM and the IC50 [4] was 0.045 µM.
Work on `CS(=O)(=O)c1ccc(-c2nn(-c3ccccc3)cc2C(=O)Nc2cccnc2)cc1` [Compound 253, 3-[4-(Methylsulfonyl)phenyl]-1-phenyl-N-(pyridin-3-yl)-1H-pyrazole-4-carboxamide] yielded an IC50 [3] of 10 µM and an IC50 [4] of 0.059 µM.
`CS(=O)(=O)c1ccc(-c2nn(-c3cccc(C#N)c3)cc2C(=O)Nc2cccc(C(F)(F)F)c2)cc1` [Compound 270, 1-(3-Cyanophenyl)-N-(3-trifluoromethylphenyl)-3-[4-(methylsulfonyl)phenyl]-1H-pyrazole-4-carboxamide] was tested, and the IC50 [3] was 91.7 µM and the IC50 [4] was 0.346 µM.
`CS(=O)(=O)c1ccc(-c2nn(-c3ccc(C(N)=O)cc3)cc2C(=O)Nc2cccc(F)c2)cc1` [Compound 283, 1-(4-Carbomylphenyl)-3-[4-(methylsulfonyl)phenyl]-N-(3-fluorophenyl)-1H-pyrazole-4-carboxamide] was tested, and the EC50 [1] was 0.4 µM and the EC50 [2] was 18.4 µM.
For `CS(=O)(=O)c1ccc(-c2nn(-c3ccc(C(=O)NO)cc3)cc2C(=O)Nc2cccc(F)c2)cc1` [Compound 284, 1-(4-Hydroxycarbomylphenyl)-3-[4-(methylsulfonyl)phenyl]-N-(3-fluorophenyl)-1H-pyrazole-4-carboxamide], the EC50 [1] was 0.04 µM and the EC50 [2] was 1.93 µM.
`CNC(=O)c1ccc(-n2cc(C(=O)Nc3cccc(F)c3)c(-c3ccc(S(C)(=O)=O)cc3)n2)cc1` [Compound 285, 1-(4-Methylcarbomylphenyl)-3-[4-(methylsulfonyl)phenyl]-N-(3-fluorophenyl)-1H-pyrazole-4-carboxamide] was tested, and the EC50 [1] was 0.25 µM and the EC50 [2] was 0.81 µM.
In the case of `CN(C)C(=O)c1ccc(-n2cc(C(=O)Nc3cccc(F)c3)c(-c3ccc(S(C)(=O)=O)cc3)n2)cc1` [Compound 286, 1-(4-Dimethylcarbomylphenyl)-3-[4-(methylsulfonyl)phenyl]-N-(3-fluorophenyl)-1H-pyrazole-4-carboxamide], the EC50 [1] is reported as 0.11 µM and the EC50 [2] is reported as > 20 µM.
`O=C(c1sccc1Cl)N1CCN(c2ccc([N+](=O)[O-])c(N3CCCC3)c2)CC1` [Compound 324, {4-[4-Nitro-3-(pyrrolidin-1-yl)phenyl]piperazin-1-yl}(3-chlorothiophen-2-yl)methanone] gave an IC50 [3] of 5.22 µM and an IC50 [4] of 0.142 µM.
`O=C(c1ccc(O)s1)N1CCN(c2ccc([N+](=O)[O-])c(N3CCCC3)c2)CC1` [Compound 335] showed an IC50 [3] of 2.07 µM and an IC50 [4] of 0.342 µM.
